Reference: PubChem BioAssay (NCI)
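Test compounds were applied to cells in 96-well plates for 48 hours at 5 doses. Definition used: TGI = concentration required for complete inhibition of growth.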

Key:
Assay in all cases: DTP human tumour cell line panel, 48 h
[1] = tested on: SK-MEL-2 melanoma
[2] = tested on: SW-620 colon
[3] = tested on: UACC-62 melanoma
[4] = tested on: HCC-2998 colon
[5] = tested on: HOP-92 NSCLC
[6] = tested on: IGROV1 ovarian
[7] = tested on: OVCAR-5 ovarian
[8] = tested on: SN12C renal
[9] = tested on: TK-10 renal
[10] = tested on: SK-MEL-5 melanoma
[11] = tested on: NCI-H23 lung
[12] = tested on: MDA-MB-435
[13] = tested on: SF-539 CNS
[14] = tested on: LOX IMVI melanoma
[15] = tested on: SK-MEL-28 melanoma
[16] = tested on: M14 melanoma
[17] = tested on: MALME-3M melanoma
[18] = tested on: EKVX NSCLC
[19] = tested on: NCI-H522 lung
[20] = tested on: UACC-257 melanoma
[21] = tested on: MCF7 breast
[22] = tested on: HCT-116 colon
[23] = tested on: SR leukemia
[24] = tested on: MDA-N
[25] = tested on: ACHN renal
[26] = tested on: HT29 colon
[27] = tested on: SF-295 CNS
[28] = tested on: BT-549 breast
[29] = tested on: 786-0 renal
[30] = tested on: NCI-H226 lung
[31] = tested on: SNB-75 CNS
[32] = tested on: OVCAR-3 ovarian
[33] = tested on: T-47D breast
[34] = tested on: SF-268 CNS
[35] = tested on: CAKI-1 renal
[36] = tested on: OVCAR-8 ovarian
[37] = tested on: DU-145 prostate
[38] = tested on: UO-31 renal
[39] = tested on: RXF 393 renal
[40] = tested on: K-562 leukemia
[41] = tested on: OVCAR-4 ovarian
[42] = tested on: MDA-MB-231 breast
[43] = tested on: HS 578T breast
[44] = tested on: HOP-62 NSCLC
[45] = tested on: A498 renal
[46] = tested on: MOLT-4 leukemia
[47] = tested on: A549 NSCLC
[48] = tested on: NCI-H460 lung
[49] = tested on: HCT-15 colon
[50] = tested on: U251 CNS
[51] = tested on: KM12 colon
[52] = tested on: PC-3 prostate
[53] = tested on: NCI/ADR-RES ovarian
[54] = tested on: SNB-19 CNS
[55] = tested on: RPMI-8226 leukemia
[56] = tested on: COLO 205 colon
[57] = tested on: HL-60(TB) leukemia
[58] = tested on: SK-OV-3 ovarian
[59] = tested on: CCRF-CEM leukemia

Nc1ccc(Oc2ccc(C34CC5CC(C3)CC(c3ccc(Oc6ccc(N)cc6)cc3)(C5)C4)cc2)cc1 was tested, and the TGI [1] was 36.2 µM, the TGI [2] was over 100 µM and the TGI [3] was 27.3 µM. For the same compound, the TGI [4] was 19.3 µM, the TGI [5] was 25.8 µM and the TGI [6] was 15.4 µM. It also gave a TGI [7] of 62.2 µM, a TGI [8] of over 55.2 µM and a TGI [9] of over 39.4 µM. The TGI [10] was 26.2 µM, the TGI [11] was 37.4 µM and the TGI [12] was 40.7 µM. The TGI [13] was 36.4 µM, the TGI [14] was 20.1 µM and the TGI [15] was over 72.1 µM. It also gave a TGI [16] of 23.5 µM, a TGI [17] of 28.7 µM and a TGI [18] of over 66.5 µM. For the same compound, the TGI [19] was 38.7 µM, the TGI [20] was 40.9 µM and the TGI [21] was 21.6 µM. The TGI [22] was over 44.8 µM, the TGI [23] was over 100 µM and the TGI [24] was over 45.1 µM. For the same compound, the TGI [25] was over 51.4 µM, the TGI [26] was over 55 µM and the TGI [27] was over 56.4 µM. It also gave a TGI [28] of 33.6 µM, a TGI [29] of over 52.1 µM and a TGI [30] of 75.2 µM. For the same compound, the TGI [31] was 90.5 µM, the TGI [32] was over 32.3 µM and the TGI [33] was 66.3 µM. For the same compound, the TGI [34] was over 51.7 µM, the TGI [35] was 46.3 µM and the TGI [36] was 23.6 µM. For the same compound, the TGI [37] was 33.3 µM, the TGI [38] was over 53.4 µM and the TGI [39] was over 51.9 µM. For the same compound, the TGI [40] was over 100 µM, the TGI [41] was 51.2 µM and the TGI [42] was 32.9 µM. It also gave a TGI [43] of over 62.8 µM, a TGI [44] of over 56.7 µM and a TGI [45] of 27.3 µM. It also gave a TGI [46] of over 100 µM, a TGI [47] of over 60.7 µM and a TGI [48] of 22.6 µM. For the same compound, the TGI [49] was over 63.9 µM, the TGI [50] was 21.6 µM and the TGI [51] was over 45.4 µM. For the same compound, the TGI [52] was 25.7 µM, the TGI [53] was over 60.4 µM and the TGI [54] was 38.7 µM. For the same compound, the TGI [55] was over 100 µM, the TGI [56] was over 58.7 µM and the TGI [57] was over 66.9 µM. For the same compound, the TGI [58] was over 70.1 µM and the TGI [59] was over 100 µM.

CC(C)(C)[Si](C)(C)OCC1C=CC(n2cnc3c(N)ncnc32)O1 (stereo not drawn) was tested, and the TGI [1] was over 100 µM, the TGI [2] was over 95.8 µM and the TGI [3] was over 69.5 µM. For the same compound, the TGI [4] was over 100 µM, the TGI [5] was 38.1 µM and the TGI [6] was over 100 µM. The TGI [7] was over 100 µM, the TGI [8] was over 100 µM and the TGI [9] was over 100 µM. For the same compound, the TGI [10] was 34.1 µM, the TGI [11] was over 100 µM and the TGI [12] was 57.1 µM. It also gave a TGI [13] of over 81.5 µM, a TGI [14] of over 64 µM and a TGI [15] of over 100 µM. For the same compound, the TGI [16] was 66.9 µM, the TGI [17] was over 100 µM and the TGI [18] was over 100 µM. For the same compound, the TGI [19] was over 100 µM, the TGI [20] was 98.4 µM and the TGI [21] was over 75.4 µM. For the same compound, the TGI [22] was 50.6 µM, the TGI [23] was 60.8 µM and the TGI [24] was 85.9 µM. For the same compound, the TGI [25] was over 100 µM, the TGI [26] was over 100 µM and the TGI [27] was over 100 µM. The TGI [28] was over 54.7 µM, the TGI [29] was over 100 µM and the TGI [30] was over 69.6 µM. For the same compound, the TGI [31] was over 81 µM, the TGI [32] was over 67.9 µM and the TGI [33] was over 100 µM. The TGI [34] was over 100 µM, the TGI [35] was over 100 µM and the TGI [36] was over 100 µM. It also gave a TGI [37] of over 100 µM, a TGI [38] of over 100 µM and a TGI [39] of 73 µM. The TGI [40] was 54 µM, the TGI [41] was over 100 µM and the TGI [42] was over 73.6 µM. For the same compound, the TGI [43] was over 100 µM, the TGI [44] was over 100 µM and the TGI [45] was over 100 µM. The TGI [46] was 44.4 µM, the TGI [47] was over 100 µM and the TGI [48] was over 100 µM. For the same compound, the TGI [49] was over 100 µM, the TGI [50] was 72.3 µM and the TGI [51] was over 100 µM. For the same compound, the TGI [52] was over 100 µM, the TGI [53] was over 100 µM and the TGI [54] was over 100 µM. For the same compound, the TGI [55] was 58.3 µM, the TGI [56] was over 100 µM and the TGI [57] was 40.3 µM. It also gave a TGI [58] of over 100 µM and a TGI [59] of 39.8 µM.
